Data taken from patent publication EP1733731A1, “New uses of Glycerol derivatives in particular in cosmetics” (AGRO INDUSTRIE RECHERCHES ET DEVELOPPEMENTS (A.R.D.), priority 2005, dated 2006).

Target: T1, MMP-2 (Homo sapiens, UniProt P08253)
T1 construct: La proMMP-2 recombinante (12,5 ng/mL) est activée par l'APMA 10 mM pendant 16 heures à 4°C
T1 sequence (P08253 110-660): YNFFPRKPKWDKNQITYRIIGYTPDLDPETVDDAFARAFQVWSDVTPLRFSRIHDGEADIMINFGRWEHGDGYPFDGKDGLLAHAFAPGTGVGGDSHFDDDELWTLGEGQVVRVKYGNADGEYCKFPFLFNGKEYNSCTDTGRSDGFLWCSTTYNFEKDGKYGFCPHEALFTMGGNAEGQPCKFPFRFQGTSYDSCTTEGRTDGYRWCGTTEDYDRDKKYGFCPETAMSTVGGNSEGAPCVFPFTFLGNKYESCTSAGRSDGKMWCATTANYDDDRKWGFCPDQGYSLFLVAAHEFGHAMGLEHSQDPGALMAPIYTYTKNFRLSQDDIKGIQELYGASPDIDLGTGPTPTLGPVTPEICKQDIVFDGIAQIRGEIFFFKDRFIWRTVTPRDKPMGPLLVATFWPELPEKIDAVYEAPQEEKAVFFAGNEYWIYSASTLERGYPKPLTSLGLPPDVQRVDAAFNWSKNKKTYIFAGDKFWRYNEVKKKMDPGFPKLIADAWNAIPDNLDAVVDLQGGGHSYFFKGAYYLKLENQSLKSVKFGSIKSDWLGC
Assay: MMP-2 activity on fluorescent synthetic substrate
Assay type: biochemical
Conditions: 25 µg/mL
Excerpt: L'inhibition de l'activité des gélatinases MMP-2 et MMP-9 par les acides gras insaturés à longue chaîne a pu être montré sur des coupes de peau. Ce phénomène implique à la fois des domaines spécifiques des gélatinases : les "Collagen Binding Domain" (CBD) et la double liaison des acides gras. L'interaction entre les gélatinases, via ces sites particuliers que sont les exosites (CBD), et l'acide gras, via son insaturation, entraîne une perte d'activité des gélatinases in vitro comme in vivo. La présence de double liaisons au niveau des chaînes latérales de ces glycolipides a conduit à cribler l'ensemble des composés de l'invention sur l'activité de la gélatinase-A ou MMP-2, car cette enzyme, bien qu'elle ne soit pas surexprimée au cours des vieillissements par les cellules dermiques, participe à la dégradation du tissu élastique responsable de la formation de rides. […]
La proMMP-2 recombinante (12,5 ng/mL) est activée par l'APMA 10 mM pendant 16 heures à 4°C puis préincubée 10 min en présence des différentes fractions et composés à tester : le substrat synthétique spécifique de la MMP-2 (Référence : M-1895, Bachem) est ensuite ajouté, à la concentration de 2 µM. Le clivage de ce substrat est estimé par mesure de la fluorescence émise après clivage (λexc = 326 nm; λem = 465 nm), à raison d'une lecture toutes les 2 minutes pendant 30 minutes. […]

MMP-2 (Vi/Vo): > 1
Compound: CCCCC/C=C\C/C=C\CCCCCCCCOC[C@H](CO[C@@H]1O[C@H](COC(=O)CCCCCCCCCCCCCCC)[C@H](O)[C@H](O)[C@H]1O)OCCCCCCCC/C=C\C/C=C\CCCCC [ED23-11, 1,2-di-O-linoléyl-3-O-[6'-O-palmitoyl-β-D-galactopyranosyl]-sn-glycérol]
